According to ChEMBL document CHEMBL1821669, “Cyclic depsipeptides, grassypeptolides D and E and Ibu-epidemethoxylyngbyastatin 3, from a Red Sea Leptolyngbya cyanobacterium” (J Nat Prod, 2011):
Numbered stars: 1 amine (or outer) side, 2 acyl side, 3 side chain; on linkers, the order of the positions; unused ones are H or OH. Square brackets hold non-standard residues; d marks the D form. Peptide text beside a SMILES is read from it. X2 = CCC[C@@H](N[*:1])[C@H](C)C(=O)O[C@H](C(=O)[*:2])[C@@H](C)CC; X3 = CC[C@H](C)[C@H](OC(=O)[C@@H](C)[C@@H](CC)N[*:1])C(=O)[*:2]; dAbuψ(thiazoline)Cys = CC[C@@H](N[*:1])C1=N[C@H](C(=O)[*:2])CS1; X4 = CN([C@@H](Cc1ccccc1)C1=N[C@H](C(=O)[*:2])CS1)[*:1]; dβ3hAla(2R-Me) = C[C@@H](N[*:1])[C@@H](C)C(=O)[*:2]; X1 = C[C@H](N[*:1])C(=O)C(C)(C)C(=O)[*:2]; d(aThr) = C[C@@H](O)[C@@H](N)C(=O)O; NMeF = CN[C@@H](Cc1ccccc1)C(=O)O; PhLac = O=C(O)[C@@H](O)Cc1ccccc1; NMeL = CN[C@@H](CC(C)C)C(=O)O; dNMeL = CN[C@H](CC(C)C)C(=O)O; NMeV = CN[C@H](C(=O)O)C(C)C; NMeA = CN[C@@H](C)C(=O)O

Columns and labels:
HeLa = assay: Cytotoxicity against human HeLa cells after 48 hrs by MTT assay; format: functional, cell-based
[1] = Cytotoxicity against mouse Neuro2a cells after 48 hrs by MTT assay; format: functional, cell-based; settings: N2a

Compound | IC50 (HeLa) [nM] | IC50 [1] [nM]
CC[C@H]1NC(=O)[C@@]2(C)CSC(=N2)[C@H](Cc2ccccc2)N(C)C(=O)[C@@H]2CCCN2C(=O)[C@H](C(C)C)N(C)C(=O)[C@H](Cc2ccccc2)OC(=O)[C@H](C)[C@@H](C)NC(=O)[C@@H]([C@@H](C)O)NC(=O)[C@@H](CC(C)C)N(C)C(=O)[C@@H]2CSC1=N2 [GRASSYPEPTOLIDE D] | 335 | 599
CC[C@H]1NC(=O)[C@@]2(C)CSC(=N2)[C@H](Cc2ccccc2)N(C)C(=O)[C@@H]2CCCN2C(=O)[C@H](C(C)C)N(C)C(=O)[C@H](Cc2ccccc2)OC(=O)[C@H](C)[C@@H](C)NC(=O)[C@H]([C@@H](C)O)NC(=O)[C@H](CC(C)C)N(C)C(=O)[C@@H]2CSC1=N2 [GRASSYPEPTOLIDE E] | 192 | 407
CCC[C@H]1NC(=O)[C@H](C)N(C)C(=O)C(C)(C)C(=O)[C@H](C)NC(=O)[C@H](Cc2ccccc2)N(C)C(=O)[C@H](C(C)C)N(C)C(=O)CNC(=O)[C@H](CC(C)C)N(C)C(=O)CNC(=O)[C@H]([C@@H](C)CC)OC(=O)[C@H]1C (cyclo(G[NMeL]G[NMeV][NMeF][X1][NMeA][X2])) | – | > 10000
CC[C@H]1NC(=O)[C@@H]2CSC(=N2)[C@H](Cc2ccccc2)N(C)C(=O)[C@@H]2CCCN2C(=O)[C@H](C(C)C)N(C)C(=O)[C@H](Cc2ccccc2)OC(=O)[C@H](C)[C@@H](C)NC(=O)[C@@H]([C@@H](C)O)NC(=O)[C@@H](CC(C)C)N(C)C(=O)[C@@H]2CSC1=N2 [GRASSYPEPTOLIDE C] (cyclo([NMeV]P[X4][dAbuψ(thiazoline)Cys][dNMeL][d(aThr)][dβ3hAla(2R-Me)][PhLac])) | 45 | –
CC[C@H](C)[C@@H]1OC(=O)[C@@H](C)[C@@H](CC)NC(=O)[C@H](C)N(C)C(=O)C(C)(C)C(=O)[C@H](C)NC(=O)[C@H](Cc2ccccc2)N(C)C(=O)[C@H](C(C)C)N(C)C(=O)CNC(=O)[C@H](CC(C)C)N(C)C(=O)CNC1=O [DOLASTATIN 12] (cyclo(G[NMeL]G[NMeV][NMeF][X1][NMeA][X3])) | – | > 1000
